In this assay the target is T1, ETV1 (ETS variant 1) (Homo sapiens, UniProt P50549).
T1 sequence (P50549 1-477): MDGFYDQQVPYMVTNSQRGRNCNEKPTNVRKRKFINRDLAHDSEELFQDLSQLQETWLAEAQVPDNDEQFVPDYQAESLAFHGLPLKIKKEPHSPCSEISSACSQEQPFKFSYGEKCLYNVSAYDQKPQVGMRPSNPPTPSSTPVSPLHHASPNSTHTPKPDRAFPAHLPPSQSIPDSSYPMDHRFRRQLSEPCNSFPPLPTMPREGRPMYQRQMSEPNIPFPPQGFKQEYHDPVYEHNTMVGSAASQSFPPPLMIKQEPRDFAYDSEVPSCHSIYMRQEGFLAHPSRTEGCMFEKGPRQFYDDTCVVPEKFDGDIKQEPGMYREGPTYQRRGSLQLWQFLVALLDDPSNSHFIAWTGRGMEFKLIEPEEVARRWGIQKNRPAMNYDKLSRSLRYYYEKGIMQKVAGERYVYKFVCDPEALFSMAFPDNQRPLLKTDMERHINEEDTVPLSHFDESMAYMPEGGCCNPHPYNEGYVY
The experiment in a line: SPR. The format is binding.

As usually defined, the Kd is the equilibrium constant for the complex coming apart. In turn, `COc1ccc(Nc2nc(N)nc(CN3CCCCC3)n2)cc1` [compound 1, BRD32048] displayed a Kd of 17.1 µM.

These data come from publication PMC4154495 (Molecular cancer therapeutics, 2014).
